PubChem BioAssay AID192 (DTP/NCI, 2004)
Several values for one entry are separate records, joined by “and”; a condition that tells them apart may be missing. Identical values can stand only once. Inconclusive results and toxic doses are left out. The calls were made as follows: active = survival T/C of 150% or more; inactive = T/C below 125% in these data.

System: BDF1 mice, B16 melanoma ip, median survival T/C
Test: NCI In Vivo Anticancer Drug Screen. Data for tumor model B16 Melanoma (intraperitoneal) in B6D2F1 (BDF1) mice
Conditions: endpoint: median survival time, higher = longer survival
Outline: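 Compounds were tested in mice carrying transplantable tumors. Survival or tumor size was recorded, and each value is the treated-group measurement (T) divided by that of the vehicle-treated control group (C).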

[1] = dose: 50.0 mg/kg/injection, schedule: Q01DX009 (ip), vehicle: Klucel (hydroxypropylcellulose) (HPC)
[2] = dose: 12.5 mg/kg/injection, schedule: Q01DX009 (ip), vehicle: saline
[3] = dose: 25.0 mg/kg/injection, schedule: Q01DX009 (ip), vehicle: saline
[4] = dose: 50.0 mg/kg/injection, schedule: Q01DX009 (ip), vehicle: saline
[5] = dose: 100.0 mg/kg/injection, schedule: Q01DX009 (ip), vehicle: saline
[6] = dose: 200.0 mg/kg/injection, schedule: Q01DX009 (ip), vehicle: saline
[7] = dose: 400.0 mg/kg/injection, schedule: Q01DX009 (ip), vehicle: saline
[8] = dose: 100.0 mg/kg/injection, schedule: Q01DX009 (ip), vehicle: saline with Tween-80
[9] = dose: 200.0 mg/kg/injection, schedule: Q01DX009 (ip), vehicle: saline with Tween-80
[10] = dose: 400.0 mg/kg/injection, schedule: Q01DX009 (ip), vehicle: saline with Tween-80
[11] = dose: 100.0 mg/kg/injection, schedule: Q01DX009 (ip), vehicle: Klucel (hydroxypropylcellulose) (HPC)
[12] = dose: 100.0 mg/kg/injection, schedule: Q04DX003 (ip), vehicle: Klucel (hydroxypropylcellulose) (HPC)
[13] = dose: 200.0 mg/kg/injection, schedule: Q01DX009 (ip), vehicle: Klucel (hydroxypropylcellulose) (HPC)
[14] = dose: 50.0 mg/kg/injection, schedule: Q01DX009 (ip), vehicle: saline with Tween-80
[15] = dose: 25.0 mg/kg/injection, schedule: Q04DX003 (ip), vehicle: Klucel (hydroxypropylcellulose) (HPC)

Measured: T/C

C=C(OC)C(Nc1cc(OC)c(OC)cc1C(=O)OC1CC(O[C@@H]2C(=O)C(NC(=O)OC)=C3/C(=C\CSSSC)[C@]2(O)C#C/C=C\C#C[C@@H]3OC2OC(C)C(NOC3CC(O)C(SC)C(C)O3)C(O)C2OC2CC(OC)C(NCCC)CO2)OC(C)C1O)OC (stereo partly drawn)
inactive: dose: 6.4 micrograms/kg/injection, schedule: Q04DX003 (ip), vehicle: methylcellulose (MC) 106 % of control
active: dose: 0.1 micrograms/kg/injection, schedule: Q01DX009 (ip), vehicle: methylcellulose (MC) 178 % of control | dose: 0.2 micrograms/kg/injection, schedule: Q01DX009 (ip), vehicle: methylcellulose (MC) 172 % of control | dose: 0.4 micrograms/kg/injection, schedule: Q01DX009 (ip), vehicle: methylcellulose (MC) 175 % of control | dose: 0.4 micrograms/kg/injection, schedule: Q04DX003 (ip), vehicle: methylcellulose (MC) 160 % of control | dose: 0.8 micrograms/kg/injection, schedule: Q01DX009 (ip), vehicle: methylcellulose (MC) 182 % of control | dose: 1.6 micrograms/kg/injection, schedule: Q01DX009 (ip), vehicle: methylcellulose (MC) 182 % of control | dose: 1.6 micrograms/kg/injection, schedule: Q04DX003 (ip), vehicle: methylcellulose (MC) 168 % of control | dose: 3.2 micrograms/kg/injection, schedule: Q04DX003 (ip), vehicle: methylcellulose (MC) 153 % of control

O=c1[nH]c(=O)n(C2CC(O)C(CO)O2)cc1Br (stereo not drawn)
inactive: dose: 25.0 mg/kg/injection, schedule: Q01DX009 (ip), vehicle: Klucel (hydroxypropylcellulose) (HPC) 101 % of control | [1] 117 % of control

Nc1cccc(=O)[nH]1
inactive: [2] 90 % of control | [3] 98 % of control | [4] 98 % of control | [5] 98 % of control | [6] 90 % of control | [7] 92 % of control

S=c1sc2ccccc2n1CN(c1ccccc1)c1ccc2ccccc2c1
inactive: dose: 25.0 mg/kg/injection, schedule: Q04DX003 (ip), vehicle: saline with Tween-80 109 % of control | dose: 50.0 mg/kg/injection, schedule: Q04DX003 (ip), vehicle: saline with Tween-80 106 % of control | dose: 100.0 mg/kg/injection, schedule: Q04DX003 (ip), vehicle: saline with Tween-80 93 % of control and 103 % of control

O=C(/C(=C\c1ccccc1)CBr)c1ccccc1
inactive: dose: 0.12 mg/kg/injection, schedule: Q01DX009 (ip), vehicle: Klucel (hydroxypropylcellulose) (HPC) 101 % of control | dose: 0.25 mg/kg/injection, schedule: Q01DX009 (ip), vehicle: Klucel (hydroxypropylcellulose) (HPC) 88 % of control | dose: 0.5 mg/kg/injection, schedule: Q01DX009 (ip), vehicle: Klucel (hydroxypropylcellulose) (HPC) 88 % of control

COC(=O)C(CCCN)NC(=O)c1ccccc1 (stereo not drawn)
inactive: [4] 95 % of control | [5] 102 % of control | [6] 107 % of control | [7] 97 % of control

OCc1ccccc1
inactive: [8] 94 % of control | [9] 100 % of control | [10] 108 % of control

C[C@@H]1C[C@@]2(O[C@@H]2C)C(=O)O[C@@H]2CCN3CC=C(COC(=O)[C@]1(C)O)[C@H]23
inactive: dose: 10.0 mg/kg/injection, schedule: Q01DX009 (ip), vehicle: saline 102 % of control | dose: 20.0 mg/kg/injection, schedule: Q01DX009 (ip), vehicle: saline 102 % of control | dose: 40.0 mg/kg/injection, schedule: Q01DX009 (ip), vehicle: saline 104 % of control

CCCCCCCCCCCC[N+](C)(C)CCCCCCCCCCCC
inactive: dose: 4.0 mg/kg/injection, schedule: Q01DX009 (ip), vehicle: saline 87 % of control | dose: 8.0 mg/kg/injection, schedule: Q01DX009 (ip), vehicle: saline 88 % of control and 94 % of control

CC(C)OC(=O)Nc1ccc(-c2ccc(NC(=O)OC(C)C)cc2)cc1
inactive: [11] 109 % of control | [12] 109 % of control | [13] 118 % of control | dose: 200.0 mg/kg/injection, schedule: Q04DX003 (ip), vehicle: Klucel (hydroxypropylcellulose) (HPC) 90 % of control | dose: 400.0 mg/kg/injection, schedule: Q01DX009 (ip), vehicle: Klucel (hydroxypropylcellulose) (HPC) 109 % of control | dose: 400.0 mg/kg/injection, schedule: Q04DX003 (ip), vehicle: Klucel (hydroxypropylcellulose) (HPC) 92 % of control

[N-]=[N+]=CC(=O)NCC(=O)NN
active: dose: 300.0 mg/kg/injection, schedule: Q01DX009 (ip), vehicle: other 166 % of control | [7] 150 % of control | dose: 600.0 mg/kg/injection, schedule: Q02DX005 (ip), vehicle: other 156 % of control
inactive: dose: 50.0 mg/kg/injection, schedule: Q01DX009 (ip), vehicle: other 111 % of control | [4] 110 % of control | dose: 100.0 mg/kg/injection, schedule: Q01DX009 (ip), vehicle: other 106 % of control | [5] 113 % of control | dose: 200.0 mg/kg/injection, schedule: Q01DX009 (ip), vehicle: other 120 % of control | [6] 123 % of control | dose: 500.0 mg/kg/injection, schedule: Q01DX009 (ip), vehicle: other 86 % of control

CCCCOC(=O)C(C)OC(=O)Nc1cccc(Cl)c1 (stereo not drawn)
inactive: [8] 88 % of control | [9] 100 % of control | [10] 92 % of control

Cc1cc2nc(CN)[nH]c2cc1C
inactive: [14] 110 % of control | [8] 97 % of control | [9] 97 % of control

Cc1ccc(N=NN(C)C)cc1
inactive: dose: 12.5 mg/kg/injection, schedule: Q01DX009 (ip), vehicle: saline with Tween-80 113 % of control | dose: 25.0 mg/kg/injection, schedule: Q01DX009 (ip), vehicle: saline with Tween-80 115 % of control | [14] 106 % of control

C/C=C1\C[C@@H]2C(OC)Nc3cc(O)c(OC)cc3C(=O)N2C1 (stereo partly drawn)
inactive: dose: 0.03 mg/kg/injection, schedule: Q01DX009 (ip), vehicle: saline 100 % of control | dose: 0.06 mg/kg/injection, schedule: Q01DX009 (ip), vehicle: saline 112 % of control | dose: 0.12 mg/kg/injection, schedule: Q01DX009 (ip), vehicle: saline 115 % of control | dose: 0.12 mg/kg/injection, schedule: Q01DX009 (ip), vehicle: suspension in saline 105 % of control | dose: 0.25 mg/kg/injection, schedule: Q01DX009 (ip), vehicle: saline 112 % of control | dose: 0.25 mg/kg/injection, schedule: Q01DX009 (ip), vehicle: suspension in saline 96 % of control | dose: 0.5 mg/kg/injection, schedule: Q01DX009 (ip), vehicle: saline 115 % of control | dose: 0.5 mg/kg/injection, schedule: Q01DX009 (ip), vehicle: suspension in saline 96 % of control

CCCCCCCCCCCCCCCCCCNC(=O)CCl
inactive: [1] 93 % of control | [11] 93 % of control | [13] 86 % of control

O=C(CBr)CC(O)(C(F)(F)F)C(F)(F)F
inactive: dose: 0.75 mg/kg/injection, schedule: Q01DX009 (ip), vehicle: saline 100 % of control | dose: 0.75 mg/kg/injection, schedule: Q04DX003 (ip), vehicle: saline 97 % of control | dose: 1.5 mg/kg/injection, schedule: Q01DX009 (ip), vehicle: saline 105 % of control | dose: 1.5 mg/kg/injection, schedule: Q04DX003 (ip), vehicle: saline 100 % of control | dose: 3.0 mg/kg/injection, schedule: Q01DX009 (ip), vehicle: saline 94 % of control | dose: 3.0 mg/kg/injection, schedule: Q04DX003 (ip), vehicle: saline 100 % of control and 105 % of control

Cc1cnccc1Br
inactive: dose: 25.0 mg/kg/injection, schedule: Q01DX009 (ip), vehicle: water 96 % of control | dose: 50.0 mg/kg/injection, schedule: Q01DX009 (ip), vehicle: water 97 % of control

CCCCCCCCCOCCOCCOCCN
inactive: dose: 12.5 mg/kg/injection, schedule: Q04DX003 (ip), vehicle: Klucel (hydroxypropylcellulose) (HPC) 98 % of control | [15] 90 % of control

COC1C=CC23c4cc5c(cc4C(O)OC2CN(C)C3C1)OCO5 (stereo not drawn)
inactive: dose: 6.25 mg/kg/injection, schedule: Q01DX009 (ip), vehicle: saline 101 % of control and 109 % of control | [2] 98 % of control and 108 % of control | [3] 112 % of control and 116 % of control | [4] 112 % of control

NC(=O)C1(N2CCCC2)CCN(Cc2ccccc2)CC1
inactive: [15] 105 % of control | dose: 50.0 mg/kg/injection, schedule: Q04DX003 (ip), vehicle: Klucel (hydroxypropylcellulose) (HPC) 94 % of control | [12] 100 % of control
